Laboratory results reported in patent publication US11028051B2, “Tetrahydroquinoline-based bromodomain inhibitors” (St. Jude Children's Research Hospital, priority 2016, dated 2021).

What was measured:
[1] = molecular target: BRD2-BD1 (Homo sapiens (Human), UniProt P25440); test: isothermal titration calorimetry analysis of binding; settings: ITC, BRD2(1); read-out: KD (ITC)
Experimental: (§1) b. Isothermal Titration Calorimetry Analysis of Binding to Brd2-BD1 and Brd2-BD2
(§2) Binding of compounds to BRD2 was monitored using an ITC200 (Microcal, Piscataway, N.J.). Either Brd2.1 (74-194) or Brd2.2 (348-455) was dialyzed overnight into a solution containing 50 mM HEPES, pH 7.0 and 150 mM NaCl at 15° C. Enzyme concentrations were determined after dialysis by absorbance at 280 nm using a molar extinction coefficient (ε280) of 25,565 M^−1 cm^−1 (2.1) or 16,055 M^−1 cm^−1 (2.2). Enzyme was diluted in dialysis buffer and 39.6 μL was loaded into the syringe. Compounds were dissolved in the same dialysis buffer and loaded in the cell to a volume of 204 μL. Injections were carried out by serial injections of enzyme; first, 1 injection of 1 μL, followed by 19 incremental injections of 2 μL, at 120 second intervals. Data from the first injection was excluded, due to pre-equilibration mixing between the contents of cell and syringe at the syringe tip. Peak areas were integrated, normalized, and then fitted by non-linear regression using the independent sites model in Origin™ (version 2.3.6, Microcal, Piscataway, N.J.).

[2] = molecular target: BRD2-BD2 (Homo sapiens (Human), UniProt P25440); test: as above; settings: ITC, BRD2(2); read-out: KD (ITC)
Experimental: as §1, §2

[3] = test system: Loucy; test: anti-proliferative activity; format: cell-based; settings: Table 5
Experimental: (§3) After 7 days of treatment, an equal volume of CellTiter-Glo reagent (G7572, Promega) was added and the luminescence signal was measured using an automated Envision plate reader (Perkin-Elmer). Luminescence data were normalized by log10 transformation prior to calculating the percent inhibition using the following equation:
(§4) 100*(negative control mean −compound value)/(negative control mean −positive control mean).

[4] = test system: MV-4-11; test: anti-proliferative activity; format: cell-based; settings: Homo sapiens, MV4-11; Table 7
Experimental: as §3, §4

[5] = test system: NALM-16; test: anti-proliferative activity; format: cell-based; settings: NALM16; Table 5
Experimental: as §3, §4

[6] = test system: SEM cells; test: anti-proliferative activity; format: cell-based; settings: Table 5
Experimental: as §3, §4

[7] = molecular target: BRD2(1) (Homo sapiens (Human), UniProt P25440); test: BROMOscan KD determination; format: binding; settings: Table 10
Outline: (§5)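 KD figures derive from BROMOscan follow-up determinations. The panel-wide data are single-concentration (1 μM) competitive binding results versus control across ~42 bromodomains.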

[8] = molecular target: BRD2(2) (Homo sapiens (Human), UniProt P25440); test: BROMOscan KD determination; format: binding
Outline: as §5

[9] = molecular target: BRDT(1) (Homo sapiens (Human), UniProt Q58F21); test: BROMOscan KD determination; format: binding; settings: Table 10
Outline: as §5

[10] = molecular target: BRDT(2) (Homo sapiens (Human), UniProt Q58F21); test: BROMOscan KD determination; format: binding
Outline: as §5

[11] = test system: neural crest tumor cell lines; test: activity versus neural crest tumor cell lines; format: cell-based; settings: several neural crest tumor cell lines; read-out: IC50 ranges

BRD2(2), sequence (P25440 344-453): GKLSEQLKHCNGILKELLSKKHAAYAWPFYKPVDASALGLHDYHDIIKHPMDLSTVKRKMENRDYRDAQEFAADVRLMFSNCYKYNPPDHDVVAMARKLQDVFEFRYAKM
BRD2-BD1, sequence (P25440 74-194): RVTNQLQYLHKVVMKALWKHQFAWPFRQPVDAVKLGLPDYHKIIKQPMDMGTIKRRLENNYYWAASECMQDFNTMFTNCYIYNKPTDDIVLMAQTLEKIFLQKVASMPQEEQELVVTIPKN
BRD2-BD2, sequence (P25440 348-455): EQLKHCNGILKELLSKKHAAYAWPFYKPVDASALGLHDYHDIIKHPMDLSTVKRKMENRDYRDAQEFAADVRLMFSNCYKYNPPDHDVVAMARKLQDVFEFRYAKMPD
BRD2(1), sequence (P25440 74-180): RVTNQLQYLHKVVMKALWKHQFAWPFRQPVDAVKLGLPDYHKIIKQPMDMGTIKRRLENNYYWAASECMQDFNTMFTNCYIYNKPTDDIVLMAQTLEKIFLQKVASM

For `COC(=O)c1ccc(N[C@@H]2C[C@H](C)N(C(C)=O)c3ccc(-c4cccc(NC(C)=O)c4)cc32)cc1` [compound 4], which Kd [1] is on record?
Its Kd is 25 nM.

What about the Kd [2] of the same molecule?
Its Kd is < 1 nM.

And the EC50 [3]?
The EC50 was 0.39 µM.

And the EC50 [4]?
Its EC50 is 0.016 µM.

And the EC50 [5]?
The EC50 was 0.35 µM.

And the EC50 [6]?
The EC50 was 0.02 µM.

And the Kd [7]?
The Kd was 24 nM.

What about the “[2(1)/2(2)]” value ([8]; BROMOscan KD ratio) of the same molecule?
The value was 36.9.

And the Kd ([8]; BROMOscan, Table 10)?
The Kd was 0.65 nM.

What about the Kd [9] of the same molecule?
Its Kd is 4.9 nM.

And the “T(1)/T(2)” value ([10]; BROMOscan KD ratio)?
Its value is 1.0.

And the Kd ([10]; BROMOscan, Table 10)?
The Kd was 4.9 nM.

And the IC50 [11]?
The IC50 was 50 to 200 nM.
